According to publication PMC8448343, “Characterisation of novel functionality within the Blastocystis tryptophanase gene” (PLoS Neglected Tropical Diseases, 2021):

Target: T1, BhTnaA (Blastocystis ST7-B tryptophanase) (Blastocystis hominis, UniProt D8M5A5)
T1 construct: gene GSBLH_T00003147001; pGEX-6P-1, N-terminal GST tag cut with PreScission protease; E. coli BL21
T1 sequence (D8M5A5 1-544): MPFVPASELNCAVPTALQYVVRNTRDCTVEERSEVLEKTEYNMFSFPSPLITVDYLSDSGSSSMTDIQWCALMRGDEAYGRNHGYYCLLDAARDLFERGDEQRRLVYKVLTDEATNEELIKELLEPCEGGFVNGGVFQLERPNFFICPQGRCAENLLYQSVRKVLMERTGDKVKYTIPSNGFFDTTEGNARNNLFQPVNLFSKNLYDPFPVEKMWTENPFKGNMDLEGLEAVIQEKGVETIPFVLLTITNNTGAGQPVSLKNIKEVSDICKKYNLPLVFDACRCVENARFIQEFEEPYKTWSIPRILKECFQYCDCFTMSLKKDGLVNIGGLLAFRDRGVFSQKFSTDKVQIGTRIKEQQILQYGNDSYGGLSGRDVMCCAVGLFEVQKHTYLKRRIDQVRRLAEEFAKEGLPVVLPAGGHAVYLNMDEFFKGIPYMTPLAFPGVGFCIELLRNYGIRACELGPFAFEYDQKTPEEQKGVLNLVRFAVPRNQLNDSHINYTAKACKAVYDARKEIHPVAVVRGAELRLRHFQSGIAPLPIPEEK
Assay: indole formation, Ehrlich's reagent, […] nm, Hanes-Woolf plot
Type: biochemical
Settings: forward reaction (tryptophan to indole); PLP 0.165 mM; pH 7.5; 37 °C; toluene-layered; exact value only in Fig 4D

Structure (SMILES): N[C@@H](Cc1c[nH]c2ccccc12)C(=O)O [L-tryptophan]
- Km: > 3 mM
